Measurements reported in paper PMC8277899, “A novel RyR1-selective inhibitor prevents and rescues sudden death in mouse models of malignant hyperthermia and heat stroke” (Nature Communications, 2021).
“And” between values parts separate entries of the source, which are not always exact repeats. Identical values can stand only once. Like-named read-outs stand apart in the source and are kept apart here.

Tested on: soleus muscles from R2509C mice
Experiment: Muscle force in vitro, soleus from R2509C mice (caffeine and heat contracture, twitch, tetanus)
Format: cell-based, mouse
Details: for inhibition at 3 µM: Mus musculus, soleus (WT and R2509C groups)

CCCCCCCCn1cc(C(=O)O)c(=O)c2cc3c(cc21)OCO3 [Cpd1, 6,7-(methylenedioxy)-1-octyl-4-quinolone-3-carboxylic acid]
inhibition at 3 µM (at 100 Hz, read-out: inhibition of tetanic contraction force): 35%
inhibition at 3 µM (read-out: inhibition of twitch contraction force): 72%
increase in basal stress in response to caffeine (R2509C soleus, 3 μM Cpd1, caffeine 20 mM): 0.5836 and 0.5932 and 0.4496 and 0.3389 and 0.4718
effect on caffeine-induced contracture tension (R2509C soleus, pretreatment 3 µM, 20 mM caffeine): decreased
effect on heat-induced contracture (R2509C soleus, pretreatment 3 µM, 42 °C): significantly reduced
